Laboratory results: patent publication US5444071A, “Quinoline derivatives and use thereof as angiotensin II antagonists” (Imperial Chemical Industries PLC, priority 1989, dated 1995)

Tested on: angiotensin II-induced pressor responses
Experiment: Test C: antagonism of angiotensin II-induced pressor responses in rats
Assay type: in vivo
Details: iv, rat, i.v. administration
From the text: The antagonism of one or more of the physiological actions of AII and, in particular, the antagonism of the interaction of AII with the receptors which mediate its effects on a target tissue, may be assessed using one or more of the following, routine laboratory procedures: Test C: This in vivo test involves using terminally-anaesthetised or conscious rats in which an arterial catheter has been implanted under anaesthesia for the measurement of changes in blood pressure. The AII antagonistic effects of the test compound following oral or parenteral administration, are assessed against angiotensin II-induced pressor responses. To ensure that the effect is specific, the effect of the test compound on vasopressin-induced pressor responses may also be determined in the same preparation.

With `Cc1cc(OCc2ccc(-c3ccccc3-c3nnn[nH]3)cc2)c2ccccc2n1.Cl` [Example 7, 2-methyl-4-[(2'-(1H-tetrazol-5-yl)biphenyl-4-yl)methoxy]quinoline hydrochloride] the ED50 was 0.5 mg/kg.
